Assay results reported in patent publication US20110245249A1, “Heterocyclically Substituted Anilinopyrimidines” (Bayer CropScience AG, priority 2008, published 2011).

Test: logP by HPLC on reversed-phase columns (EEC Directive 79/831 Annex V.A8)
Assay type: physicochemical
Details: for log p [c]: pH 7.8; for log p [a]: pH 2.3
Procedure: The logP values were measured in accordance with EEC Directive 79/831 Annex V.A8 by HPLC (High Performance Liquid Chromatography) on reversed-phase columns (C 18) using the methods below:
[a] The determination was carried out in the acidic range at pH 2.3 using the mobile phases 0.1% aqueous phosphoric acid and acetronitrile linear gradient from 10% acetonitrile to 95% acetronitrile. [b] The LC-MS determination in the acid range was carried out at pH 2.7 using the mobile phases 0.1% aqueous formic acid and acetonitrile (contains 0.1% formic acid) linear gradient from 10% acetonitrile to 95% acetonitrile. [c] The LC-MS determination in the neutral range was carried out at pH 7.8 using the mobile phases 0.001 molar aqueous ammonium bicarbonate solution and acetonitrile linear gradient from 10% acetonitrile to 95% acetonitrile.

In the case of `Clc1cnc(Nc2cccc(C3OC4CCCCC4O3)c2)nc1NC1CC1` (stereo not shown) [Example 44], the “log p [b]” value (pH 2.7) is reported as 2.65 and the “log p [c]” value is reported as 3.99.
For `FC(F)(F)CNc1nc(Nc2cccc(C3OCCO3)c2)ncc1Cl` [Example 45], the “log p [b]” value (pH 2.7) was 2.35 and the “log p [c]” value was 2.73.
For `Clc1cnc(Nc2cccc(C3OCCS3)c2)nc1NC1CC1` (stereo not shown) [Example 46, 5-Chloro-N^4-cyclopropyl-N^2-[3-(1,3-oxathiolan-2-yl)phenyl]pyrimidine-2,4-diamine], the chromatographic logP (pH 2.7, log p [b]) was 2.05, the chromatographic logP (pH 2.7, logP (pH 2.7)) was 2.05 and the chromatographic logP (pH 7.8, log p [c]) was 3.26.
In the case of `Clc1cnc(Nc2cccc(C3SCCS3)c2)nc1NC1CC1` [Example 47], the “log p [b]” value (pH 2.7) is reported as 2.42 and the “log p [c]” value is reported as 3.68.
For `CC1(c2cccc(Nc3ncc(C(F)(F)F)c(NC4CC4)n3)c2)OCCCO1` [Example 48], the “log p [b]” value (pH 2.7) was 3.29 and the “log p [c]” value was 3.64.
In the case of `Ic1cnc(Nc2cccc(C3OCCO3)c2)nc1NC1CC1` [Example 49], the “log p [b]” value (pH 2.7) is reported as 1.75 and the “log p [c]” value is reported as 3.02.
For `Clc1ccc(Nc2ncc(Cl)c(NC3CC3)n2)cc1C1OCCO1` [Example 50], the “log p [b]” value (pH 2.7) was 2.31 and the “log p [c]” value was 3.28.
With `Fc1cnc(Nc2cccc(C3OCCCO3)c2)nc1NC1CC1` [Example 51] the “log p [a]” value was 1.23, the “log p [b]” value (pH 2.7) was 1.28[b] and the “log p [c]” value was 2.4.
For `FC(F)CNc1nc(Nc2cccc(C3OCCCO3)c2)ncc1Cl` [Example 52], the “log p [a]” value was 1.6, the “log p [b]” value (pH 2.7) was 1.97[b] and the “log p [c]” value was 2.68.
For `FC(F)(F)CNc1nc(Nc2cccc(C3OCCCO3)c2)ncc1Cl` [Example 53], the “log p [a]” value was 2.08, the “log p [b]” value (pH 2.7) was 2.48[b] and the “log p [c]” value was 2.86.
With `C#CCNc1nc(Nc2cccc(C3OCCCO3)c2)ncc1Cl` [Example 54] the “log p [a]” value was 1.38, the “log p [b]” value (pH 2.7) was 1.67[b] and the “log p [c]” value was 2.48.
For `Cc1cnc(Nc2cccc(C3OCCCO3)c2)nc1NC1CC1` [Example 55], the “log p [a]” value was 1.32, the “log p [b]” value (pH 2.7) was 1.28[b] and the “log p [c]” value was 2.37.
With `COCC(C)Nc1nc(Nc2cccc(C3OCCCO3)c2)ncc1Cl` (stereo not shown) [Example 56] the “log p [a]” value was 1.46, the “log p [b]” value (pH 2.7) was 1.69[b] and the “log p [c]” value was 2.92.
With `Ic1cnc(Nc2cccc(C3OCCCO3)c2)nc1NC1CC1` [Example 57] the “log p [a]” value was 1.6, the “log p [b]” value (pH 2.7) was 2.23[b] and the “log p [c]” value was 3.18.
In the case of `Cc1cnc(Nc2cccc(C3OCCO3)c2)nc1NC1CC1` [Example 58], the “log p [a]” value is reported as 1.21, the “log p [b]” value (pH 2.7) is reported as 1.21[b] and the “log p [c]” value is reported as 2.25.
In the case of `Fc1cnc(Nc2cccc(C3OCCO3)c2)nc1NC1CC1` [Example 59], the “log p [a]” value is reported as 1.14, the “log p [b]” value (pH 2.7) is reported as 1.60[b] and the “log p [c]” value is reported as 2.28.
In the case of `FC(F)CNc1nc(Nc2cccc(C3OCCO3)c2)ncc1Cl` [Example 60], the “log p [a]” value is reported as 1.49, the “log p [b]” value (pH 2.7) is reported as 1.88[b] and the “log p [c]” value is reported as 2.55.
In the case of `COCC(C)Nc1nc(Nc2cccc(C3OCCO3)c2)ncc1Cl` (stereo not shown) [Example 61], the “log p [b]” value (pH 2.7) is reported as 1.62[b].
For `Clc1ccc(Nc2ncc(Cl)c(NC3CC3)n2)cc1C1OCCCO1` [Example 62], the “log p [b]” value (pH 2.7) was 2.44 and the “log p [c]” value was 3.47.
For `COC(OC)c1cccc(Nc2ncc(Cl)c(NC3CC3)n2)c1` [Example 63], the “log p [b]” value (pH 2.7) was 1.87 and the “log p [c]” value was 3.07.
For `CCOC(OCC)c1cccc(Nc2ncc(Cl)c(NC3CC3)n2)c1` [Example 64], the “log p [b]” value (pH 2.7) was 2.58 and the “log p [c]” value was 3.86.
For `CC(C)OC(OC(C)C)c1cccc(Nc2ncc(Cl)c(NC3CC3)n2)c1` [Example 65], the “log p [c]” value was 4.44[c];.
For `CCCCOC(OCCCC)c1cccc(Nc2ncc(Cl)c(NC3CC3)n2)c1` [Example 66], the “log p [b]” value (pH 2.7) was 4.64, the “logP (pH 2.7)” value (pH 2.7) was 4.64 and the “log p [c]” value was 5.83.
With `CC1(c2cccc(Nc3ncc(C(F)(F)F)c(NCC4CC4)n3)c2)OCCCO1` [Example 68] the “log p [b]” value (pH 2.7) was 3.42[b].
With `CC1(c2cccc(Nc3ncc(C(F)(F)F)c(NC4CCC4)n3)c2)OCCCO1` [Example 69] the “log p [b]” value (pH 2.7) was 3.81 and the “log p [c]” value was 4.24.
For `CC1(C)COC(C)(c2cccc(Nc3ncc(Cl)c(NC4CC4)n3)c2)OC1` [Example 71], the “log p [b]” value (pH 2.7) was 2.99 and the “log p [c]” value was 4.35.
